Key:
[1] = test system: Axl activation via the downstream phosphorylation of Akt (serine 473); assay: AXL Inhibition Cell Based ELISA Assay (FACE kit, Gas6-stimulated MDA-MB-231 cells); conditions: Homo sapiens, first data set, Gas6 200 ng/ml, pS473 Akt
Protocol: AXL Inhibition Cell Based ELISA Assay
This cell based ELISA assay is a simple cell-based method used to monitor activation of proteins by phosphorylation. The Active Motif, Fast Activated Cell-based ELISA (FACE) kit (Active Motif Cat No: 48120) was used in this case to monitor the inhibition, by test compounds, of Axl activation via the downstream phosphorylation of Akt (serine 473). In this system, cells are cultured in 96 well plates and treated with test compounds and Axl is activated by the introduction of Gas6 (Axl ligand). The inhibition of Axl can be directly assessed via the reduction of pS^473 Akt levels.
Active Motif FACE Kit reagents (Active Motif Cat. No: 48120(AKT)).
10% hydrogen peroxide (Sigma H1009).
10% Sodium azide (Sigma 7128).
37% Formaldehyde (Sigma F8775).
Axl/Fc conjugate (R&D Systems 154-AL).
Recombinant mouse Gas6 (R&D Systems 986-GS-025).
All cell incubations were carried out in humidified incubators set at 5% CO2 and 37° C. […]
Immunostaining (carried out as outlined in FACE kit protocol). […] 100 μL developing solution was added to each well and monitored for colour change to medium to dark blue (2 to 20 minutes). 100 μL of stop solution was then added and absorbance was read at 450 nm within 5 minutes of addition.
Crystal Violet cell staining. After reading absorbance at 450 nm, the plates were washed twice with 200 μL wash buffer and twice with 200 μL PBS. […]

[2] = target: T1, AXL (human catalytic domain) (Homo sapiens, UniProt P30530); assay: AXL (human catalytic domain) Enzyme Activity Assay (IMAP fluorescence polarisation); type: biochemical
T1 construct: purchased Upstate Ltd. 14-512
T1 sequence (P30530 473-894): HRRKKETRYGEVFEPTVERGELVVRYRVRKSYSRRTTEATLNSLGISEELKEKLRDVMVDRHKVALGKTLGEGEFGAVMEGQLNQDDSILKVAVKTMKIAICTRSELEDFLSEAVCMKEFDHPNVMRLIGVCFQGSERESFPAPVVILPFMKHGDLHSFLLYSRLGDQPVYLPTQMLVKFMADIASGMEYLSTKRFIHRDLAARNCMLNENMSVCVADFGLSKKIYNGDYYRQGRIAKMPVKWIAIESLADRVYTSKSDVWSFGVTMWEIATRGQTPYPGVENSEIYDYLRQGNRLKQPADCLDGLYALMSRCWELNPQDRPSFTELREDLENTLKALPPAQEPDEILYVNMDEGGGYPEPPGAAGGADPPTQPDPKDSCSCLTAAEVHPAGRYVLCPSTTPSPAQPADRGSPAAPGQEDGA
In short: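 Recombinant human AXL isoform 1 (aa473-894; final 15 nM) phosphorylated 100 nM fluorescein-CSK-tide with 150 μM ATP (KM) in HEPES pH 7.0/MgCl2/DTT buffer for 60 min at room temperature. IMAP fluorescence polarisation read after overnight binding; IC50 from 10-point 4-parameter logistic fits.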

[3] = first data set, recombinant AXL isoform 1 aa473-894, 150 μM ATP
[4] = further data set (WW-001 through WW-169, XX-001 through XX-469, YY-001 through YY-016, ZZ-001 through ZZ-003), 150 μM ATP

SMILES | IC50 [1] | IC50 [2, 3] | IC50 [2, 4]
Cc1cc(C)cc(-c2nccc3nc(Nc4ccc(OCCN5CCCC5)cc4)nn23)c1 [YY-015] | – | – | 100 to 1000 nM
O=C(Nc1nc2ccnc(-c3ccc4c(c3)OCCO4)n2n1)C1CC1 [ZZ-001, Cyclopropanecarboxylic acid [5-(2,3-dihydro-benzo[1,4]dioxin-6-yl)-[1,2,4]triazolo[1,5-c]pyrimidin-2-yl]-amide] | – | 364 nM | 100 to 1000 nM
CCOc1ccc(-c2nccc3nc(NC(=O)C4CC4)nn23)cc1 [ZZ-002] | – | – | 100 to 1000 nM
COc1ccc(-c2nccc3nc(NC(=O)C4CC4)nn23)cc1 [ZZ-003] | – | – | 1000 to 10000 nM

The next lines start with the values.

IC50 [1] | IC50 [2, 3] | IC50 [2, 4] | SMILES
8490 nM | < 1000 nM | 100 to 1000 nM | CN1CCOc2cc(-c3cccc4nc(NC(=O)C5CC5)nn34)ccc21 [WW-104]
1030 nM | < 1000 nM | ≤ 100 nM | CCNCCOc1ccc(Nc2nc3cccc(-c4ccc5c(c4)OCCO5)n3n2)cc1 [XX-070]
– | – | 1000 to 10000 nM | CCN(CC)CCOc1cc(Nc2nc3ccnc(-c4cnn(Cc5ccccc5)c4)n3n2)ccn1 [YY-016]
